# Experimental data: patent US20180113119A1, “METHODS FOR CHARACTERIZING TIME-BASED HEPATOTOXICITY” (HUREL CORPORATION, priority 2015, published 2018)
# Like-named read-outs stand apart in the source and are kept apart here.
# Tests used:
# [1] = tested on: hepatocyte-stromal cell cocultures comprising rat primary hepatocytes
# Description: (§1) Cell viability was analyzed using a CellTiter-Blue (Promega) assay, n=4.
# (§2) These are concentration dependent toxicity curves generated after 6 days of repeat compound exposure in the 4 different species. Each compound was dosed every 2 days starting on day 0. On the 6th day the Promega Celltiter blue assay was used to measure the conversion of resazurin to the fluorescent resorufin.
# (§3) Cryopreserved human hepatocytes were obtained from Thermo Fisher (formerly Life Technologies Corporation). Cryopreserved non-human primate (cynomolgus monkey) hepatocytes were obtained from Thermo Fisher (formerly Life Technologies Corporation). Cryopreserved dog hepatocytes were obtained from IVT Bioreclamation. Cryopreserved rat hepatocytes were obtained from Thermo Fisher (formerly Life Technologies Corporation). The cryopreserved hepatocytes were removed from liquid nitrogen and thawed. After thawing, cells were re-suspended in medium and cell number and cell viability was determined using trypan blue exclusion. Stromal cells were passed in a CO2 incubator until used for experimental plating. On plating day cells were detached from the plate, washed, and re-suspended in medium. Cell number and viability were determined using trypan blue exclusion.
# (§4) The stromal cells were growth arrested prior to seeding.
# (§5) The graphs in FIGS. 11-13 present concentration dependent toxicity curves generated after 6 days of repeat compound exposure in human, dog, primate, and rat. Each compound was dosed every two days for treatment periods of two days, four days, and six days across a full range of concentrations. On the sixth day a Promega Celltiter blue assay was used to measure mitochondrial metabolic activity. That data was then used to generate a TC50 value. […] In FIG. 11 cyclophosphamide was administered every two days for treatment periods of two days, four days, and six days across a full range of concentrations.
# [2] = tested on: hepatocyte-stromal cell cocultures comprising primate primary hepatocytes
# Description: as §1, §2, §3, §4, §5
# [3] = tested on: hepatocyte-stromal cell cocultures comprising human primary hepatocytes
# Description: as §1, §2, §3, §4, §5
# [4] = tested on: hepatocyte-stromal cell cocultures comprising dog primary hepatocytes
# Description: as §1, §2, §3, §4, §5
# [5] = known profile of reference compound; cited from earlier work
smiles,measurement,setting,value
O=P1(N(CCCl)CCCl)NCCCO1 (stereo not shown) [Cyclophosphamide],LC50 (TC50),"[1]; Rat, 6 days of repeat exposure, dosed every 2 days, Celltiter blue","1,506 μM"
same,effect of multiple dosing on cytotoxicity (cell viability),"[1]; rat, treatment periods of two, four and six days, CellTiter-Blue, n=4",extending the duration of dosing increases the cyclophosphamide cytotoxicity
same,LC50 (TC50),"[2]; Monkey, 6 days of repeat exposure, dosed every 2 days, Celltiter blue","1,904 μM"
same,effect of multiple dosing on cytotoxicity (cell viability),"[2]; primate, treatment periods of two, four and six days, CellTiter-Blue, n=4",extending the duration of dosing increases the cyclophosphamide cytotoxicity
same,LC50 (TC50),"[3]; Human, 6 days of repeat exposure, dosed every 2 days, Celltiter blue","5,523 μM"
same,effect of multiple dosing on cytotoxicity (cell viability),"[3]; human, treatment periods of two, four and six days, CellTiter-Blue, n=4",extending the duration of dosing increases the cyclophosphamide cytotoxicity
same,LC50 (TC50),"[4]; Dog, 6 days of repeat exposure, dosed every 2 days, Celltiter blue","7,541 μM"
same,effect of multiple dosing on cytotoxicity (cell viability),"[4]; dog, treatment periods of two, four and six days, CellTiter-Blue, n=4",extending the duration of dosing increases the cyclophosphamide cytotoxicity
Cc1c(C)c2c(c(C)c1O)CCC(C)(COc1ccc(CC3SC(=O)NC3=O)cc1)O2 (stereo not shown) [Troglitazone],LC50 (TC50),"[1]; rat, 6 days",317 µM
same,LC50 (TC50),"[2]; cynomolgus monkey, 6 days",207 µM
same,LC50 (TC50),"[3]; human, 6 days",308 µM
same,LC50 (TC50),"[4]; dog, 6 days",267 µM
COc1ccccc1Oc1c(NS(=O)(=O)c2ccc(C(C)(C)C)cc2)nc(-c2ncccn2)nc1OCCO [bosentan],LC50 (TC50) at 24 hours,human hepatocytes,757 µM
same,known in vivo hepatotoxicity,[5],strong in vivo hepatotoxicity
CN(C)CCCN1c2ccccc2Sc2ccc(Cl)cc21 [chlorpromazine],LC50 (TC50) at 24 hours,human hepatocytes,21 µM
CC(C)NCC(O)COc1cccc2ccccc12 (stereo not shown) [propranolol],known in vivo hepatotoxicity,[5],lack of hepatotoxicity
